Laboratory results from patent publication US11147805B2, “Cannabinoid receptor agonists and serine hydrolase enzyme inhibitor based anxiolytic therapeutic product” (Medipure Pharmaceuticals Inc., priority 2019, dated 2021).

Key:
Swiss albino mice [1] = assay: Dose-response study: locomotor activity in the open field; type: in vivo; conditions: 7 days repeated, tested 8th day, tracked 60 min, vs vehicle
Protocol: The effect of CBD, KML29, and JZL184 on locomotor activity in the open field experiment was evaluated using Swiss albino mice.
A total of 88 male Swiss albino mice (˜30-45 g; 7-9 weeks old) were selected and body weights were recorded. Animals were administered respective treatments (n=8) as per the group allocation repeatedly for 7 days. On the day of testing (8th day), animals were brought to the laboratory 1 h prior to acclimatize to the laboratory conditions. Mice were habituated to the arenas for a period of 30 min. Respective treatments were intraperitoneally administered (vehicle (10 mL/kg) or Diazepam (1 mg/kg) or CBD (1, 10 and 100 mg/kg) or KML29 (3, 10 and 30 mg/kg) or JZL184 (3, 10 and 30 mg/kg)) immediately post habituation. After treatment animals were placed in the open field and distance traveled by mice was tracked for 60 min. Data obtained was analyzed by Student's ‘t’-test or Two-way repeated measures ANOVA followed by Bonferroni's posthoc tests by using the Graph pad prism software package (Version 7.0) and a p-value below 0.05 was considered as significant.

Swiss albino mice [2] = assay: Anxiolytic effects of formulation: locomotor activity in open field, combinations vs diazepam; type: in vivo; conditions: 1 mg/kg, i.p.; tested 8th day, tracked 60 min; vs vehicle
Protocol: The effect of CBD, KML29, and JZL184 on locomotor activity in open field was evaluated using Swiss albino mice and compared with diazepam.
A total of 48 male Swiss albino mice (˜30-45 g; 7-9 weeks old) were selected and body weights were recorded. Animals were brought to the laboratory 1 h prior to acclimatize to the laboratory conditions. The open field is a black colored arena of 51×51×51 cm enclosed by black plastic walls of same dimensions. Animals were given respective intraperitoneal treatments as per the group allocation (n=8) repeatedly for 7 days. On the day of testing (8th day), mice were habituated to the arenas for a period of 30 min. […] Data obtained was analyzed by Student's ‘t’-test or Two-way repeated measures ANOVA followed by Bonferroni's posthoc tests by using the GraphPad prism software package (Version 7.02) and p-value below 0.05 was considered as significant.
Preparation of formulations: Diazepam was dissolved with sufficient volume of 5% pharmasolve and 95% of 30% w/v captisol to get the concentration of 0.10 mg/mL and was intended for intraperitoneal administration of 1 mg/kg dose at 10 mL/kg dose volume. CBD was dissolved in a calculated volume of DMSO to get the concentration of 20 mg/mL (Stock solution). […] KML29 was dissolved in a calculated volume of DMSO to get the concentration of 50 mg/mL (Stock solution). […]

healthy volunteers = conditions: chronic administration, even large acute doses of 700 mg/day; cited from earlier work
human subjects = human subjects submitted to SPST; cited from earlier work

Structure (SMILES): CN1C(=O)CN=C(c2ccccc2)c2cc(Cl)ccc21 [Diazepam, diazepam]
- locomotion (distance traveled in open field) (Swiss albino mice [1]; 1 mg/kg, i.p.): significantly decreased the locomotion
- locomotion (distance traveled in open field) (Swiss albino mice [2]): significantly decreased the locomotion

Structure (SMILES): O=C(Oc1ccc([N+](=O)[O-])cc1)N1CCC(C(O)(c2ccc3c(c2)OCO3)c2ccc3c(c2)OCO3)CC1 [JZL184, 4-nitrophenyl-4-[bis(1,3-benzodioxol-5yl)(hydroxy)methyl]piperidine-1-carboxylate]
- locomotion (distance traveled in open field) (Swiss albino mice [1]; 3, 10 and 30 mg/kg i.p.): decreased the locomotion in a dose-dependent manner but the effect did not reach statistical significance

Structure (SMILES): C=C(C)[C@@H]1CCC(C)=C[C@H]1c1c(O)cc(CCCCC)cc1O [CBD, cannabidiol]
- locomotion (distance traveled in open field) (Swiss albino mice [1]; 100 mg/kg, i.p.): significantly decreased the locomotion
- toxicity or serious side effects (healthy volunteers): No signs of toxicity or serious side effects
- anxiolytic effect (human subjects): anxiolytic effects

Structure (SMILES): O=C(N1CCC(=C2c3ccc(Cl)cc3CCc3cccnc32)CC1)n1cncn1 [KML29, [4-(8-Chloro-5,6-dihydro-11H-benzo[5,6]cyclohepta[1,2-b]pyridin-11-ylidene)-1-piperidinyl](1H-1,2,4-triazol-1-yl)methanone]
- locomotion (distance traveled in open field) (Swiss albino mice [1]; 30 mg/kg, i.p.): decreased the locomotion and attained significance
